Counter-ions that a name gives are not always drawn.
Molecular target: T1, human NHE3 (Homo sapiens, UniProt P48764)
T1 sequence (P48764 26-834): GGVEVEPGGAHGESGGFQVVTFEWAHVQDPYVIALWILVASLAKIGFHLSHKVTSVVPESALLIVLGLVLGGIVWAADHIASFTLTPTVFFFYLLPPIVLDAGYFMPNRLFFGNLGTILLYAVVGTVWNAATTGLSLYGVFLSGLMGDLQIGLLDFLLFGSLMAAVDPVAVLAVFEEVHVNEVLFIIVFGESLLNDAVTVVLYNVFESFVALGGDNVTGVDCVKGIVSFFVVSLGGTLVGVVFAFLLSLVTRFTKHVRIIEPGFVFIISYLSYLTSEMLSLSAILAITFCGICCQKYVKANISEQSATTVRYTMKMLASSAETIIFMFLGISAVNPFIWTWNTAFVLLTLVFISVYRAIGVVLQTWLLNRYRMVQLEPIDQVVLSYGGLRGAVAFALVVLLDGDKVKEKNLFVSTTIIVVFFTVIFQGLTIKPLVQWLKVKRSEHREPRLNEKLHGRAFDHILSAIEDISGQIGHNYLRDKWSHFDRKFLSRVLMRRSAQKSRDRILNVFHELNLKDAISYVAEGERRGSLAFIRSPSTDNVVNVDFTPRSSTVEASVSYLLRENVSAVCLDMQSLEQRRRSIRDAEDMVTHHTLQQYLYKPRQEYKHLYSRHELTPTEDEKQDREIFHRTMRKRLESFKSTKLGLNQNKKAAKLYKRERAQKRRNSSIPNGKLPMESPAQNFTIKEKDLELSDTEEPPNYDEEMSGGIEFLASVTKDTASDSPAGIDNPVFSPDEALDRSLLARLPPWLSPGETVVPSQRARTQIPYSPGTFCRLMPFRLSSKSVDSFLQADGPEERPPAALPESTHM
Test: NHE3 inhibition test (recovery of intracellular pH in cell line stably expressing human NHE3)
Assay type: cell-based
Details: OK cells deficient in endogenous NHE stably expressing human NHE3; BCECF fluorescence, initial rate of pH recovery; read-out: human NHE3 inhibitory activity IC50
How it was run: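 IC50 is the concentration halving the initial rate of Na-triggered intracellular pH recovery, tracked by BCECF fluorescence, in NH4Cl-acidified cells. Cells: NHE-deficient OK line stably transfected with human NHE3; compound added in Na-free pH 7.4 buffer.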

Compound | IC50 [nM]
CN1Cc2c(Cl)cc(Cl)cc2[C@H](c2cccc(-c3cnc(NCCOCCOCCNC(=O)NCCCCNC(=O)NCCOCCOCCNc4ncc(-c5cccc([C@@H]6CN(C)Cc7c(Cl)cc(Cl)cc76)c5)cn4)nc3)c2)C1 [Example 7-3, 1,1′-Butane-1,4-diylbis {3-[2-(2-{2-[(5-{3-[(4S)-6,8-dichloro-2-methyl-1,2,3,4-tetrahydroisoquinolin-4-yl]phenyl}pyrimidin-2-yl)amino]ethoxy}ethoxy)ethyl]urea}hydrochloride] | 11
CN1Cc2c(Cl)cc(Cl)cc2[C@H](c2cccc(-c3ccccn3)c2)C1 [Example 1-6, (4S)-6,8-Dichloro-2-methyl-4-[3-(pyridin-2-yl)phenyl]-1,2,3,4-tetrahydroisoquinoline trifluoroacetate] | 373
CN1Cc2c(Cl)cc(Cl)cc2[C@H](c2cccc(-c3cn(CCOCCOCCOCCNC(=O)NCCOCCNC(=O)NCCOCCOCCOCCn4cc(-c5cccc([C@@H]6CN(C)Cc7c(Cl)cc(Cl)cc76)c5)nn4)nn3)c2)C1 [Example 7-37, 1,1′-(Oxydiethane-2,1-diyl)bis{3-[2-(2-{2-[2-(4-{3-[(4S)-6,8-dichloro-2-methyl-1,2,3,4-tetrahydroisoquinolin-4-yl]phenyl}-1H-1,2,3-triazol-1-yl)ethoxy]ethoxy}ethoxy)ethyl]urea}hydrochloride] | 6.6
CN1Cc2c(Cl)cc(Cl)cc2[C@H](c2cccc(-c3cccnn3)c2)C1 [Example 1-20, (4S)-6,8-Dichloro-2-methyl-4-[3-(pyridazin-3-yl)phenyl]-1,2,3,4-tetrahydroisoquinoline hydrochloride] | 208
CN1Cc2c(Cl)cc(Cl)cc2[C@H](c2cccc(-c3ccnc(C#N)c3)c2)C1 [Example 1-7, 4-{3-[(4S)-6,8-Dichloro-2-methyl-1,2,3,4-tetrahydroisoquinolin-4-yl]phenyl}pyridine-2-carbonitrile] | 626
CN1Cc2c(Cl)cc(Cl)cc2[C@H](c2cccc(-c3ccc(NCCOCCOCCNC(=O)[C@H](O)[C@@H](O)C(=O)NCCOCCOCCNc4ccc(-c5cccc([C@@H]6CN(C)Cc7c(Cl)cc(Cl)cc76)c5)cn4)nc3)c2)C1 [Example 8-2, (2R,3R)-N,N′-Bis[2-(2-{2-[(5-{3-[(4S)-6,8-dichloro-2-methyl-1,2,3,4-tetrahydroisoquinolin-4-yl]phenyl}pyridin-2-yl)amino]ethoxy}ethoxy)ethyl]-2,3-dihydroxybutanediamide hydrochloride] | 10.7
CN1Cc2c(Cl)cc(Cl)cc2[C@H](c2cccc(-c3cc(OCCOCCOCCOCCNC(=O)Nc4ccc(NC(=O)NCCOCCOCCOCCOc5cc(-c6cccc([C@@H]7CN(C)Cc8c(Cl)cc(Cl)cc87)c6)ncn5)cc4)ncn3)c2)C1 [Example 7-25, 1,1′-Benzene-1,4-diylbis(3-{2-[2-(2-{2-[(6-{3-[(4S)-6,8-dichloro-2-methyl-1,2,3,4-tetrahydroisoquinolin-4-yl]phenyl}pyrimidin-4-yl)oxy]ethoxy}ethoxy)ethoxy]ethyl}urea) hydrochloride] | 13.6
CN1Cc2c(Cl)cc(Cl)cc2[C@H](c2cccc(-c3ccc(NCCOCCOCCNC(=O)CCCCC(=O)NCCOCCOCCNc4ccc(-c5cccc([C@@H]6CN(C)Cc7c(Cl)cc(Cl)cc76)c5)cn4)nc3)c2)C1 [Example 8-3, N,N′-Bis[2-(2-{2-[(5-{3-[(4S)-6,8-dichloro-2-methyl-1,2,3,4-tetrahydroisoquinolin-4-yl]phenyl}pyridin-2-yl)amino]ethoxy}ethoxy)ethyl]hexanediamide hydrochloride] | 13.2
CN1Cc2c(Cl)cc(Cl)cc2[C@H](c2cccc(-c3cn(CCOCCOCCOCCNC(=O)[C@@H](O)[C@H](O)C(=O)NCCOCCOCCOCCn4cc(-c5cccc([C@@H]6CN(C)Cc7c(Cl)cc(Cl)cc76)c5)nn4)nn3)c2)C1 [Example 8-9, (2S,3S)-N,N′-Bis[2-(2-{2-[2-(4-{3-[(4S)-6,8-dichloro-2-methyl-1,2,3,4-tetrahydroisoquinolin-4-yl]phenyl}-1H-1,2,3-triazol-1-yl)ethoxy]ethoxy}ethoxy)ethyl]-2,3-dihydroxybutanediamide hydrochloride] | 3.6
